# Test results published in patent publication US20220257491A1, “Prebiotic Oral Care Compositions and Methods” (Colgate-Palmolive Company, priority 2021, published 2022).
# Marks after values point to notes of the source that are not given here.
# What was measured:
# Type in all cases: cell-based
# F. nucleatum = test: Multi-species biofilm composition: absolute abundance of F. nucleatum; conditions: for Absolute abundance Fn (F. nucleatum): mean±SD n=3
# Procedure: (§1) Biofilms are grown vertically on Calcium Deficient Hydroxyapatite (CAD-HA) disks (Hitemco Medical, Old Bethpage, USA) using the Amsterdam Active Adhesion model. Biofilms are allowed to establish during 24 h (37° C., 170 rpm) under micro-aerophilic conditions (6% O2, 7% CO2, 7% H2, 80% N2). After this 24 h, disks are rinsed 3 times a day for 3 minutes (RT, 250 rpm), for 3 consecutive days, by transferring the lid containing the disks to a new 24-well plate containing 2 mL/well of the appropriate substrate solution. As a negative control, PBS (pH 5.7) without substrate supplementation is used. After each rinsing step, disks are shortly dip-rinsed in a new 24-well plate containing fresh modified BHI medium (2 mL/well) to remove remaining substrate traces. Subsequently, the lid is transferred to another 24-well plate containing fresh modified BHI medium (2 mL/well), followed by incubation (micro-aerophilic, 37° C., 170 rpm) until the next rinsing step.
# (§2) NADM, N-acetyl-D-glucosamine (“NADG”) and D-(+)-mannose are selected to determine their effects on multi-species biofilm composition. […] decrease in absolute numbers in at least four of the pathogenic bacterial species tested in the assay, compared to the control, the results of which are described in Table 1 below. Absolute abundances of bacterial species are shown as mean±SD (n=3) logarithmic values of the genome equivalents per millilitre (log(Geq/mL)).
# P. gingivalis = test: Multi-species biofilm composition: absolute abundance of P. gingivalis; conditions: for Absolute abundance Pg (P. gingivalis): mean±SD n=3
# Procedure: as §1, §2
# S. mutans = test: Multi-species biofilm composition: absolute abundance of S. mutans; conditions: mean±SD n=3
# Procedure: as §1
# (§3) NADM, N-acetyl-D-glucosamine (“NADG”) and D-(+)-mannose are selected to determine their effects on multi-species biofilm composition. Repeated rinsing of the biofilms with the substrates at a concentration of 1M results in a significant decrease in absolute numbers in at least four of the pathogenic bacterial species tested in the assay, compared to the control, the results of which are described in Table 1 below. Absolute abundances of bacterial species are shown as mean±SD (n=3) logarithmic values of the genome equivalents per millilitre (log(Geq/mL)).
# A. naeslundii = test: Multi-species biofilm composition: absolute abundance of A. naeslundii; conditions: mean±SD n=3
# Procedure: as §1, §3
# A. viscosus = test: Multi-species biofilm composition: absolute abundance of A. viscosus; conditions: mean±SD n=3
# Procedure: as §1, §2
# S. gordonii = test: Multi-species biofilm composition: absolute abundance of S. gordonii; conditions: mean±SD n=3
# Procedure: as §1, §3
# S. oralis = test: Multi-species biofilm composition: absolute abundance of S. oralis; conditions: mean±SD n=3
# Procedure: as §1, §2
# S. salivarius = test: Multi-species biofilm composition: absolute abundance of S. salivarius; conditions: mean±SD n=3
# Procedure: as §1, §3
# V. parvula = test: Multi-species biofilm composition: absolute abundance of V. parvula; conditions: mean±SD n=3
# Procedure: as §1, §3
# [1] = test system: P. gingivalis virulence genes; test: Multi-species biofilm virulence gene expression, SYBR RT-qPCR: P. gingivalis; conditions: relative to control, 2^-ΔΔCt, geometric mean n=3
# Procedure: as §1
# (§4) The expression of 33 virulence genes from 4 periodontal pathogens is analysed to evaluate the relative virulence of the substrate-treated biofilms. For all three substrates, virulence gene expression is determined relatively to the control, and these values are also compared between substrates when this is relevant (Tables 5a-5d).
# [2] = test system: F. nucleatum virulence genes; test: Multi-species biofilm virulence gene expression, SYBR RT-qPCR: F. nucleatum; conditions: for Fold Change in virulence gene expression: ABC transp. perm. / Fold Change in virulence gene expression: EF-G / Fold Change in virulence gene expression: but.-coA transf. / Fold Change in virulence gene expression: hemin receptor / Fold Change in virulence gene expression: hemolysin / Fold Change in virulence gene expression: ompA / Fold Change in virulence gene expression: transposase: relative to control (=1), 2^-ΔΔCt, geometric mean n=3
# Procedure: as §1, §4
# [3] = test system: P. intermedia virulence genes; test: Multi-species biofilm virulence gene expression, SYBR RT-qPCR: P. intermedia; conditions: for Fold Change in virulence gene expression: DnaJ / Fold Change in virulence gene expression: DnaK / Fold Change in virulence gene expression: ECF / Fold Change in virulence gene expression: GroES / Fold Change in virulence gene expression: HtpG / Fold Change in virulence gene expression: KpsD / Fold Change in virulence gene expression: adpc / Fold Change in virulence gene expression: clpB / Fold Change in virulence gene expression: inpA / Fold Change in virulence gene expression: phg: relative to control (=1), 2^-ΔΔCt, geometric mean n=3
# Procedure: as §1, §4
# [4] = test system: human oral keratinocytes (HOK-18A); test: IL-8 levels in supernatants of keratinocyte cultures exposed to substrate-treated biofilms; conditions: mean±SD n=3
# Procedure: Cultures of immortalized human oral keratinocytes (HOK-18A) are grown. The relative inflammatory potential of the substrate-treated multi-species biofilms is evaluated by analyzing the expression of five inflammatory mediator genes in human oral keratinocytes (HOKs) exposed to the substrate-treated biofilms. […] The IL-8 levels in the cellular supernatant are determined as well. RNA is converted to cDNA and relative expression of inflammatory mediator genes is determined as described above with respect to the cellular housekeeping gene (3-actin.
# Table 7: IL-8 levels detected in the supernatants of human oral keratinocytes (HOK-18A) cultures exposed to substrate-treated multi-species biofilms are shown as mean±SD (n=3) values (pg/mL). All substrates are dissolved in PBS at a concentration of 1 M (upper part) or 1% (w/v) (lower part). Values between 0 and 1 represent relative downregulation, values >1 represent relative upregulation. […] For such values, statistically significant differences between two experimental conditions are marked with ‘#1’ (vs. NADM), ‘#2’ (vs. NADG), ‘#3’ (vs. D-(+)-mannose) (P<0.05).
structure (smiles),measurement,setting,value
"O=C[C@@H](O)[C@@H](O)[C@H](O)[C@H](O)CO [D-mannose, D-(+)-mannose]",Decrease in F. nucleatum vs control,F. nucleatum; substrate 1%(w/v),1.1 log(Geq/mL)
same,Absolute abundance Fn (F. nucleatum),F. nucleatum; substrate 1%(w/v) in PBS,8.66 ± 0.29 log(Geq/mL)
same,Absolute abundance Fn (F. nucleatum),F. nucleatum; substrate 1 M in PBS,6.59 ± 0.36 log(Geq/mL)
same,Absolute abundance Pg (P. gingivalis),P. gingivalis; substrate 1%(w/v) in PBS,7.08 ± 0.17 log(Geq/mL)
same,Difference in P. gingivalis amounts compared to NADG,P. gingivalis; substrate 1 M,−1.25 log(Geq/mL)
same,Absolute abundance Pg (P. gingivalis),P. gingivalis; substrate 1 M in PBS,"2.75 ± 0.08*^, #2 log(Geq/mL)"
same,Absolute abundance S. mutans,S. mutans; substrate 1%(w/v) in PBS,7.34 ± 0.12 log(Geq/mL)
same,Absolute abundance S. mutans,S. mutans; substrate 1 M in PBS,8.60 ± 0.09 log(Geq/mL)
same,Absolute abundance An (A. naeslundii),A. naeslundii; substrate 1%(w/v) in PBS,7.59 ± 0.05 log(Geq/mL)
same,Absolute abundance An (A. naeslundii),A. naeslundii; substrate 1 M in PBS,5.54 ± 0.24 log(Geq/mL)
same,Absolute abundance Av (A. viscosus),A. viscosus; substrate 1%(w/v) in PBS,8.00 ± 0.17 log(Geq/mL)
same,Absolute abundance Av (A. viscosus),A. viscosus; substrate 1 M in PBS,6.40 ± 0.48 log(Geq/mL)
same,Absolute abundance S. gord. (S. gordonii),S. gordonii; substrate 1%(w/v) in PBS,8.29 ± 0.11 log(Geq/mL)
same,Absolute abundance S. gord. (S. gordonii),S. gordonii; substrate 1 M in PBS,9.19 ± 0.39 log(Geq/mL)
same,Absolute abundance S. oralis,S. oralis; substrate 1%(w/v) in PBS,6.27 ± 0.21 log(Geq/mL)
same,Absolute abundance S. oralis,S. oralis; substrate 1 M in PBS,6.83 ± 0.09 log(Geq/mL)
same,Absolute abundance S. sal. (S. salivarius),S. salivarius; substrate 1%(w/v) in PBS,2.89 ± 0.35 log(Geq/mL)
same,Absolute abundance S. sal. (S. salivarius),S. salivarius; substrate 1 M in PBS,3.63 ± 0.90 log(Geq/mL)
same,Absolute abundance Vp (V. parvula),V. parvula; substrate 1%(w/v) in PBS,9.93 ± 0.20 log(Geq/mL)
same,Absolute abundance Vp (V. parvula),V. parvula; substrate 1 M in PBS,10.18 ± 0.09 log(Geq/mL)
same,Fold Change in virulence gene expression: fimA,[1]; substrate 1%,2.50 fold
same,Fold Change in virulence gene expression: kgp,[1]; substrate 1%,3.07 fold
same,Fold Change in virulence gene expression: partC,[1]; substrate 1%,0.60 fold
same,Fold Change in virulence gene expression: rgpA,[1]; substrate 1%,1.85 fold
same,Fold Change in virulence gene expression: fimA,[1]; substrate 1M,1.17 fold
same,Fold Change in virulence gene expression: kgp,[1]; substrate 1M,0.44 fold
same,Fold Change in virulence gene expression: partC,[1]; substrate 1M,0.09 fold
same,Fold Change in virulence gene expression: rgpA,[1]; substrate 1M,0.18 fold
same,Fold Change in virulence gene expression: ABC transp. perm.,[2]; substrate 1%,0.73 fold
same,Fold Change in virulence gene expression: EF-G,[2]; substrate 1%,0.13 fold
same,Fold Change in virulence gene expression: but.-coA transf.,[2]; substrate 1%,0.37 fold
same,Fold Change in virulence gene expression: hemin receptor,[2]; substrate 1%,0.26 fold
same,Fold Change in virulence gene expression: hemolysin,[2]; substrate 1%,0.89 fold
same,Fold Change in virulence gene expression: ompA,[2]; substrate 1%,1.17 fold
same,Fold Change in virulence gene expression: transposase,[2]; substrate 1%,1.38 fold
same,"F. nucleatum butyrate acetoacetate CoA transferase gene, upregulation",[2]; substrate 1 M,2.3 fold
same,"F. nucleatum hemolysin gene, upregulation",[2]; substrate 1 M,2.1 fold
same,Fold Change in virulence gene expression: ABC transp. perm.,[2]; substrate 1M,2.65 fold
same,Fold Change in virulence gene expression: EF-G,[2]; substrate 1M,1.36 fold
same,Fold Change in virulence gene expression: but.-coA transf.,[2]; substrate 1M,2.27 fold
same,Fold Change in virulence gene expression: hemin receptor,[2]; substrate 1M,3.82 fold
same,Fold Change in virulence gene expression: hemolysin,[2]; substrate 1M,2.14 fold
same,Fold Change in virulence gene expression: ompA,[2]; substrate 1M,1.36 fold
same,Fold Change in virulence gene expression: transposase,[2]; substrate 1M,1.46 fold
same,"Relative P. intermedia virulence gene expression, downregulation","[3]; substrate 1%(w/v), D-(+)-mannose for 3 genes",2- to 2.7 fold
same,Fold Change in virulence gene expression: DnaJ,[3]; substrate 1%,0.37 fold
same,Fold Change in virulence gene expression: DnaK,[3]; substrate 1%,0.63 fold
same,Fold Change in virulence gene expression: ECF,[3]; substrate 1%,0.6 fold
same,Fold Change in virulence gene expression: GroES,[3]; substrate 1%,0.51 fold
same,Fold Change in virulence gene expression: HtpG,[3]; substrate 1%,0.46 fold
same,Fold Change in virulence gene expression: KpsD,[3]; substrate 1%,0.96 fold
same,Fold Change in virulence gene expression: adpc,[3]; substrate 1%,0.54 fold
same,Fold Change in virulence gene expression: clpB,[3]; substrate 1%,1.00 fold
same,Fold Change in virulence gene expression: inpA,[3]; substrate 1%,0.37 fold
same,Fold Change in virulence gene expression: phg,[3]; substrate 1%,0.50 fold
same,Fold Change in virulence gene expression: DnaJ,[3]; substrate 1M,0.03 fold
same,Fold Change in virulence gene expression: DnaK,[3]; substrate 1M,0.44 fold
same,Fold Change in virulence gene expression: ECF,[3]; substrate 1M,1.47 fold
same,Fold Change in virulence gene expression: GroES,[3]; substrate 1M,0.37 fold
same,Fold Change in virulence gene expression: HtpG,[3]; substrate 1M,0.29 fold
same,Fold Change in virulence gene expression: KpsD,[3]; substrate 1M,0.42 fold
same,Fold Change in virulence gene expression: adpc,[3]; substrate 1M,0.27 fold
same,Fold Change in virulence gene expression: clpB,[3]; substrate 1M,0.14 fold
same,Fold Change in virulence gene expression: inpA,[3]; substrate 1M,0.47 fold
same,Fold Change in virulence gene expression: phg,[3]; substrate 1M,0.10 fold
same,IL-8 levels in supernatants of HOK-18A cultures,[4]; biofilm rinsed with substrate 1%(w/v),51.09 ± 13.89 pg/mL
same,IL-8 levels in supernatants of HOK-18A cultures,[4]; biofilm rinsed with substrate 1M,0.06 ± 0.04 pg/mL
